{
  "source": "patent US7981873B1",
  "about": "“Use within transplantation surgery” (Corline Systems AB, priority 2000, dated 2011)",
  "molecules": {"B1": {"name": "C1-INA: the complement inhibitor C1 inactivator (C1-INA) (protein, UniProt P05155 23-500, looked up)", "Plasma protease C1 inhibitor": "NPNATSSSSQDPESLQDRGEGKVATTVISKMLFVEPILEVSSLPTTNSTTNSATKITANTTDEPTTQPTTEPTTQPTIQPTQPTTQLPTDSPTQPTTGSFCPGPVTLCSDLESHSTEAVLGDALVDFSLKLYHAFSAMKKVETNMAFSPFSIASLLTQVLLGAGENTKTNLESILSYPKDFTCVHQALKGFTTKGVTSVSQIFHSPDLAIRDTFVNASRTLYSSSPRVLSNNSDANLELINTWVAKNTNNKISRLLDSLPSDTRLVLLNAIYLSAKWKTTFDPKKTRMEPFHFKNSVIKVPMMNSKKYPVAHFIDQTLKAKVGQLQLSHNLSLVILVPQNLKHRLEDMEQALSPSVFKAIMEKLEMSKFQPTLLTLPRIKVTTSQDMLSIMEKLEFFDFSYDLNLCGLTEDPDLQVSAMQHQTVLELTETGVEAAAASAISVARTLLVFEVQQPFLFVLWDQQHKFPVFMGRVYDPRA"}},
  "type_in_all_cases": "cell-based",
  "key": {"[1]": {"tested_on": "adult porcine islets in fresh human blood", "test": "Tubing loop model: adult porcine islet perifusion with fresh human blood", "design": "FNIIa-AT / TAT: unit not given here", "details": "for Platelets: blood supplemented with additive, Mean SE(M); for TAT: thrombin-antithrombin", "experimental": "(§1) All the in vitro experiments for studies of islets contacting whole blood were performed in a tubing loop model. The experimental model is a modification of a model for testing biomaterials that has previously been described (J. Clin. Immunol. 16, 223-230 (1996)). Tubings made of polyvinylchloride (PVC, i.d.=6.3 mm, length=300 mm) were modified with immobilized heparin according to a method developed by Corline Systems AB (Uppsala, Sweden) as disclosed in international patent application no WO93/05793. Briefly, the polymer surface is modified with a high molecular weight amine compound to add primary amine groups to the surface. A soluble conjugate prepared by covalent binding of approximately 60 mol of heparin per mol of a straight-chained polyallylamine is irreversibly bonded onto the amine surface of the tubings. This procedure results in a total surface concentration of heparin of approximately 0.5 μg/cm^2. By using such heparin modified tubings it is possible to incubate the tubings with non-anticoagulated fresh human blood in a rocking device at 37° C. for one hour with only moderate activation of blood (c.f. control column in Table 1 A and 1 B below). Unmodified tubings will invariably induce complete clotting at these experimental conditions. Addition of human islets or porcine adult or fetal islets lead to some remarkable observations. Complete clotting invariably occurred with a total loss of platelets, a sharp increase in the formation of TAT and a very significant increase in the markers of the early contact phase (FXIIa and FXIa) of coagulation (C.f. Table 1 A and 1 B).\n(§2) Sixty ml of non-anticoagulated blood was collected from healthy blood donors using heparin-coated equipment. U-shaped tubings with a total volume of nine ml were filled with eight ml of blood immediately followed by addition of isolated human islets or porcine adult or porcine fetal islets (500 IEQ). The tubings were then closed into loops using connectors of titanium furnished with immobilised heparin. The tubing loops were placed vertically in a rocking device and the complete apparatus was placed in an incubator at 37° C. for up to sixty minutes. At the end of the rocking period blood was collected in EDTA and the number of cells were counted in a automatic cell counter. The blood samples were then centrifuged at 4° C. (3290×g, 20 min) and EDTA plasma was collected and immediately put at −70° C. Islets retrieved after blood perifusion were prepared for immunohistochemistry."}, "[2]": {"tested_on": "human islets in ABO-compatible fresh human blood", "test": "Tubing loop model: human islet perifusion with ABO-compatible fresh human blood", "design": "TAT: unit not given here", "details": "after 60 min human islet perifusion, Mean ± SE(M)", "experimental": "as §1, §2"}, "[3]": {"tested_on": "platelets in platelet rich plasma (PRP)", "test": "Islet-induced platelet aggregation in platelet rich plasma (aggregometer)", "details": "agent added to PRP before islets", "experimental": "Platelets in platelet rich plasma (PRP) and gel filtered platelets were tested in an aggregometer. Islets were added to PRP and thereafter analysed in the aggregometer. It was shown that the islets induced aggregation of the platelets (FIG. 1) and that platelets number in the sample were reduced from 375×10^9 to 236×10^9. If purified platelets without plasma proteins were used in combination with islets no aggregation and reduction in the platelet count were observed. In attempts to identify the mechanism behind the induced aggregation, an RGDS tetrapeptide to inhibit integrin binding and a monoclonal antibody against Fc receptors on platelets were used."}, "[4]": {"details": "after 60 min adult porcine islet perifusion"}},
  "data": [
    {"molecule": "heparin", "values": [
      {"measurement": "C3a", "setting": "[1]; [4]", "result": "486 ± 139", "unit": "ng/mL"},
      {"measurement": "C5b-9", "setting": "[1]; [4]", "result": "82 ± 22", "unit": "AU/mL"},
      {"measurement": "FXIa-AT", "setting": "[1]; [4]", "result": "0.53 ± 0.26", "unit": "µM"},
      {"measurement": "Lymphcytes", "setting": "[1]; [4]", "result": "1.88 ± 0.11 ×10^9"},
      {"measurement": "Monocytes", "setting": "[1]; [4]", "result": "0.35 ± 0.05 ×10^9"},
      {"measurement": "Neutrophils", "setting": "[1]; [4]", "result": "3.00 ± 0.19 ×10^9"},
      {"measurement": "Platelets", "setting": "[1]; [4]", "result": "145 ± 13.0 ×10^9"},
      {"measurement": "clotting", "setting": "[1]; in words, summary of Tables 1A and 1B", "result": "prevented clotting"},
      {"measurement": "platelet count and generation of TAT", "setting": "[1]; in words, summary of Tables 1A and 1B, listed as Soluble heparin", "result": "remarkable improvement"},
      {"measurement": "platelet count and generation of TAT", "setting": "[1]; in words, summary of Tables 1A and 1B, listed as soluble heparin", "result": "remarkable improvement in preservation of the number of platelets and reduced generation of TAT"},
      {"measurement": "TAT", "setting": "[1]; [4]", "result": "505 ± 162"},
      {"measurement": "Platelets", "setting": "[2]; blood supplemented with additive", "result": "114 ± 17 ×10^9"},
      {"measurement": "C3a", "setting": "[2]", "result": "565 ± 143.6", "unit": "ng/mL"},
      {"measurement": "C5b-9", "setting": "[2]", "result": "147 ± 39.6", "unit": "AU/mL"},
      {"measurement": "FXIIa-AT", "setting": "[2]", "result": "5.4e-06 ± 1.7e-06", "unit": "M"},
      {"measurement": "FXIa-AT", "setting": "[2]", "result": "3.4e-07 ± 1.2e-07", "unit": "M"},
      {"measurement": "Lymph.", "setting": "[2]", "result": "1.60 ± 0.20 ×10^9"},
      {"measurement": "Mono.", "setting": "[2]", "result": "0.28 ± 0.06 ×10^9"},
      {"measurement": "Neutra.", "setting": "[2]", "result": "2.56 ± 0.43 ×10^9"},
      {"measurement": "TAT", "setting": "[2]; thrombin-antithrombin", "result": "4467 ± 2285"}
    ]},
    {"molecule": "RGDS [RGDS peptide]", "values": [
      {"measurement": "consumption of platelets when islets were added to PRP", "setting": "[3]; FIG. 2", "result": "totally abolished"},
      {"measurement": "aggregation of platelets when islets were added to PRP", "setting": "[3]; FIG. 2, FIG. 3", "result": "totally abolished"}
    ]},
    {"molecule": "B1", "values": [
      {"measurement": "C3a", "setting": "[1]; [4]", "result": "1094 ± 78", "unit": "ng/mL"},
      {"measurement": "C5b-9", "setting": "[1]; [4]", "result": "183 ± 29", "unit": "AU/mL"},
      {"measurement": "FNIIa-AT", "setting": "[1]; [4]", "result": "19.65 ± 0.45"},
      {"measurement": "FXIa-AT", "setting": "[1]; [4]", "result": "2.95 ± 0.15"},
      {"measurement": "Lymphcytes", "setting": "[1]; [4]", "result": "1.23 ± 0.38 ×10^9"},
      {"measurement": "Monocytes", "setting": "[1]; [4]", "result": "0.15 ± 0.01 ×10^9"},
      {"measurement": "Neutrophils", "setting": "[1]; [4]", "result": "0.41 ± 0.13 ×10^9"},
      {"measurement": "Platelets", "setting": "[1]; [4]", "result": "4 ± 0 ×10^9"},
      {"measurement": "complement activation", "setting": "[1]; in words, summary of Table 1B", "result": "reduced complement activation"},
      {"measurement": "effect on the coagulation parameters", "setting": "[1]; in words, summary of Table 1B", "result": "no detectable effect"},
      {"measurement": "TAT", "setting": "[1]; [4]", "result": "30250 ± 3450"}
    ]}
  ]
}
